pIC50: −log10 of the molar value.
What was measured:
[1] = biological target: T1, His-BIR2-3 (125-356, C202A/C213G, XIAP) (Homo sapiens, UniProt P98170, C202A/C213G); assay: XIAP-BIR2-3 dimeric SMAC Peptide Homogeneous Time Resolved Fluorescence (HTRF) Assay; assay type: binding; details: 0.5 nM N-His-BIR2-3, 20 nM fluorescein labeled dimeric SMAC peptide
T1 construct: His-BIR2-3 (125-356, C202A/C213G, XIAP)
Protocol: B. XIAP-BIR2-3 dimeric SMAC Peptide Homogeneous Time Resolved Fluorescence (HTRF) Assay
Assays were performed in black, flat-bottom, 384-well plates. The final assay volume was 50 μL prepared from additions of His-BIR2-3 (125-356, C202A/C213G, XIAP), fluorescein labeled dimeric SMAC peptide, and test compounds in assay buffer consisting of 20 mM Sodium Phosphate, 1 mM EDTA, 50 mM NaCl, 50 μg/ml BSA, and 0.05% PLURONIC® F68. The reaction was incubated at room temperature for 60 minutes, following which 10 μl of mouse anti-6×His-Tb IgG (Medarex, Cis-bio) was added to the reaction (40 μl) for an additional 30 minute incubation. The HTRF signal, ratio of fluorescence intensities at emission wavelengths for fluorescein acceptor (520 nm) and terbium donor (615 nm), the 520/615 ratio, generated by the reaction was then measured on the Envision Plate Reader. Inhibition data were calculated from the 520/615 ratio generated by the no protein control reactions for 100% inhibition and vehicle-only reactions for 0% inhibition. The final concentration of reagents in the assay was 0.5 nM N-His-BIR2-3(125-356, C202A/C213G, XIAP), 20 nM fluorescein labeled dimeric SMAC peptide, 0.25 nM anti-His-Tb-Fab, and 0.1% DMSO. Dose response curves were generated to determine the concentration required for inhibiting 50% of the HTRF signal (IC50). Compounds were dissolved at 3 mM in dimethylsulfoxide (DMSO) and evaluated at eleven serially diluted concentrations. IC50 and Ki values were derived by non-linear regression analysis.

His-BIR3 (241-356, XIAP) = biological target: T2, His-BIR3 (241-356, XIAP) (Homo sapiens, UniProt P98170); assay: XIAP-BIR3/SMAC Homogeneous Time Resolved Fluorescence (HTRF) Assay; assay type: binding; details: 1 nM N-His-BIR3, 5 nM fluorescein labeled SMAC peptide
T2 construct: His-BIR3 (241-356, XIAP)
Protocol: A. XIAP-BIR3/SMAC Homogeneous Time Resolved Fluorescence (HTRF) Assay
Assays were performed in black, flat-bottom, 384-well plates. The final assay volume was 50 μL prepared from additions of His-BIR3 (241-356, XIAP), fluorescein labeled SMAC peptide, and test compounds in assay buffer consisting of 20 mM Sodium Phosphate, 1 mM EDTA, 50 mM NaCl, 50 μg/ml BSA, and 0.05% PLURONIC® F68. The reaction was incubated at room temperature for 60 minutes, following which 10 μl of mouse anti-6×His-terbium labeled Fab (Medarex, Cis-bio) was added to the reaction (40 μl) for an additional 30 minute incubation. The HTRF signal, ratio of fluorescence intensities at emission wavelengths for fluorescein acceptor (520 nm) and terbium donor (615 nm), the 520/615 ratio, generated by the reaction was then measured on the Envision Plate Reader Inhibition data were calculated from the 520/615 ratio generated by the no protein control reactions for 100% inhibition and vehicle-only reactions for 0% inhibition. The final concentration of reagents in the assay was 1 nM N-His-BIR3 (241-356, XIAP), 5 nM fluorescein labeled SMAC peptide, 0.25 nM anti-His-Tb-Fab, and 0.1% DMSO. Dose response curves were generated to determine the concentration required for inhibiting 50% of the HTRF signal (IC50). Compounds were dissolved at 3 mM in dimethylsulfoxide (DMSO) and evaluated at eleven serially diluted concentrations. IC50 and Ki values were derived by non-linear regression analysis.

T1 sequence (P98170 125-356 C202A/C213G): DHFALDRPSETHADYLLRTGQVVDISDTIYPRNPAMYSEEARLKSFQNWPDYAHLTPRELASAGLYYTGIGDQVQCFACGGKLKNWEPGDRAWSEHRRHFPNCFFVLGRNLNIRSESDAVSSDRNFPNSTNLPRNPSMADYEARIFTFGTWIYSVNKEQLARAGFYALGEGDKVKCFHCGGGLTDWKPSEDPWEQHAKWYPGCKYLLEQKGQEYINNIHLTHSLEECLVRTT
T2 sequence (P98170 241-356): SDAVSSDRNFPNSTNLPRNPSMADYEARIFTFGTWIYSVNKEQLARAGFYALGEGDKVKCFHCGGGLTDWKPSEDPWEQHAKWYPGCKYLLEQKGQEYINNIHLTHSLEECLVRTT

Structure (SMILES) | pIC50 [1] | pIC50 (His-BIR3 (241-356, XIAP))
CN[C@@H](C)C(=O)N[C@H](C(=O)N[C@@H](Cc1ccc([C@H]2C[C@@H](C(=O)N[C@@H](COC)c3ccccc3)N(C(=O)[C@@H](NC(=O)[C@H](C)NC)C(C)(C)C)C2)cc1)C(=O)N[C@@H]1CCCc2ccccc21)C(C)(C)C [Example 7, (2S,4R)-4-(4-((S)-2-((S)-3,3-Dimethyl-2-((S)-2-(methylamino)propanamido)butanamido)-3-oxo-3-(((R)-1,2,3,4-tetrahydronaphthalen-1-yl)amino)propyl)phenyl)-1-((S)-3,3-dimethyl-2-((S)-2-(methylamino)propanamido)butanoyl)-N-((R)-2-methoxy-1-phenylethyl)pyrrolidine-2-carboxamide] | 6.86 | 7.32
CN[C@@H](C)C(=O)N[C@H](C(=O)N1C[C@@H](NC(=O)c2ccc(C(=O)Nc3ccc(C[C@H](NC(=O)[C@@H](NC(=O)[C@H](C)NC)C(C)(C)SC)C(=O)N[C@@H]4CCCc5ccccc54)cc3)cc2)C[C@H]1C(=O)N[C@@H]1CCCc2ccccc21)C(C)(C)C [Example 4, N^1-((3S,5S)-1-((S)-3,3-Dimethyl-2-((S)-2-(methylamino)propanamido)butanoyl)-5-(((R)-1,2,3,4-tetrahydronaphthalen-1-yl)carbamoyl)pyrrolidin-3-yl)-N^4-(4-((S)-2-((R)-3-methyl-2-((S)-2-(methylamino)propanamido)-3-(methylthio)butanamido)-3-oxo-3-(((R)-1,2,3,4-tetrahydronaphthalen-1-yl)amino)propyl)phenyl)terephthalamide] | 8.54 | 7.86
CN[C@@H](C)C(=O)N[C@H](C(=O)N1C[C@@H](c2ccc(C[C@H](NC(=O)[C@@H](NC(=O)[C@H](C)NC)C(C)(C)SCC(=O)NC(CO)CO)C(=O)NC3CCCc4ccccc43)cc2)C[C@H]1C(=O)NC1CCCc2ccccc21)C(C)(C)C (stereo partly shown) [Example 6] | 8.09 | 8.85
CN[C@@H](C)C(=O)N[C@H](C(=O)N[C@@H](Cc1ccc(C(=O)N[C@H]2C[C@@H](C(=O)N[C@@H]3CCCc4ccccc43)N(C(=O)[C@@H](NC(=O)[C@H](C)NC)C(C)(C)C)C2)cc1)C(=O)N[C@@H]1CCCc2ccccc21)C(C)(C)C [Example 5, (2S,4S)-4-(4-((S)-2-((S)-3,3-Dimethyl-2-((S)-2-(methylamino)propanamido)butanamido)-3-oxo-3-(((R)-1,2,3,4-tetrahydronaphthalen-1-yl)amino)propyl)benzamido)-1-((S)-3,3-dimethyl-2-((S)-2-(methylamino)propanamido)butanoyl)-N—((R)-1,2,3,4-tetrahydronaphthalen-1-yl)pyrrolidine-2-carboxamide] | 7.86 | 8.05
CN[C@@H](C)C(=O)N[C@H](C(=O)N[C@@H](Cc1ccc([C@H]2C[C@@H](C(=O)N[C@@H]3CCCc4ccccc43)N(C(=O)[C@@H](NC(=O)[C@H](C)NC)C(C)(C)C)C2)cc1)C(=O)N[C@@H]1CCCc2ccccc21)C(C)(C)C [Example 3, (2S,4R)-4-(4-((S)-2-((S)-3,3-Dimethyl-2-((S)-2-(methylamino)propanamido)butanamido)-3-oxo-3-(((R)-1,2,3,4-tetrahydronaphthalen-1-yl)amino)propyl)phenyl)-1-((S)-3,3-dimethyl-2-((S)-2-(methylamino)propanamido)butanoyl)-N—((R)-1,2,3,4-tetrahydronaphthalen-1-yl)pyrrolidine-2-carboxamide] | 8.17 | 8.96
CN[C@@H](C)C(=O)N[C@H](C(=O)N[C@@H](Cc1ccc(NC(=O)c2ccc(C(=O)N[C@H]3C[C@@H](C(=O)N[C@@H]4CCCc5ccccc54)N(C(=O)[C@@H](NC(=O)[C@H](C)NC)C(C)(C)C)C3)cc2)cc1)C(=O)N[C@@H]1CCCc2ccccc21)C1CCCCC1 [Example 8, N^1-(4-((S)-2-((S)-2-Cyclohexyl-2-((S)-2-(methylamino)propanamido)acetamido)-3-oxo-3-(((R)-1,2,3,4-tetrahydronaphthalen-1-yl)amino)propyl)phenyl)-N^4-((3S,5S)-1-((S)-3,3-dimethyl-2-((S)-2-(methylamino)propanamido)butanoyl)-5-(((R)-1,2,3,4-tetrahydronaphthalen-1-yl)carbamoyl)pyrrolidin-3-yl)terephthalamide] | 8.02 | 6.92
CN[C@@H](C)C(=O)N[C@H](C(=O)N1C[C@@H](c2ccc(C[C@H](NC(=O)[C@@H](NC(=O)[C@H](C)NC)C(C)(C)SCCO)C(=O)N[C@@H]3CCCc4ccccc43)cc2)C[C@H]1C(=O)N[C@@H]1CCCc2ccccc21)C(C)(C)C [Example 2, (2S,4R)-1-((S)-3,3-Dimethyl-2-((S)-2-(methylamino)propanamido)butanoyl)-4-(4-((S)-2-((R)-3-((2-hydroxyethyl)thio)-3-methyl-2-((S)-2-(methylamino)propanamido)butanamido)-3-oxo-3-(((R)-1,2,3,4-tetrahydronaphthalen-1-yl)amino)propyl)phenyl)-N—((R)-1,2,3,4-tetrahydronaphthalen-1-yl)pyrrolidine-2-carboxamide] | 8.15 | 8.77
CN[C@@H](C)C(=O)N[C@H](C(=O)N1C[C@@H](c2ccc(C[C@H](NC(=O)[C@@H](NC(=O)[C@H](C)NC)C(C)(C)SCC(=O)N(C)C[C@@H](O)CO)C(=O)N[C@@H]3CCCc4ccccc43)cc2)C[C@H]1C(=O)N[C@@H]1CCCc2ccccc21)C(C)(C)C [Example 1, (2S,4R)-4-(4-((S)-2-((R)-3-((2-(((R)-2,3-Dihydroxypropyl)(methyl)amino)-2-oxoethyl)thio)-3-methyl-2-((S)-2-(methylamino)propanamido)butanamido)-3-oxo-3-(((R)-1,2,3,4-tetrahydronaphthalen-1-yl)amino)propyl)phenyl)-1-((S)-3,3-dimethyl-2-((S)-2-(methylamino)propanamido)butanoyl)-N—((R)-1,2,3,4-tetrahydronaphthalen-1-yl)pyrrolidine-2-carboxamide] | 7.91 | 8.77

— patent US9637518B2, “IAP antagonists” (BRISTOL-MYERS SQUIBB COMPANY, priority 2014, dated 2017)
